In test [1] the target is T1, BIR3 domain (residues 241-356) of human XIAP (Homo sapiens, UniProt P98170).
T1 construct: the BIR3 domain (residues 241-356) of human XIAP fused to His-tag; His-tag
Kind of test: XIAP binding assay, FP-based (Smac-Flu tracer). As to conditions: Table 5. As for the experimental part: An established sensitive and quantitative in vitro fluorescence polarization-based (FP) binding assay for testing of the binding affinity of each new small molecule inhibitor of XIAP is used. […] The competing inhibitor is then added in microtiter wells. If the inhibitor does compete with Smac-Flu to bind to XIAP, it displaces the Smac-Flu peptide from the complex and cause a reduction in the polarization value. […] The change in the polarization value is used to determine the relative affinity of the inhibitor for XIAP. The XIAP used in this assay is the BIR3 domain (residues 241-356) of human XIAP fused to His-tag.
The FP assays were performed as follows: each 96-well contains 50 nM Smac-Flu peptide, 985 nM XIAP protein and 5 ul tested compounds in a final volume of 20 ul. Tested compounds were serially diluted in triplicate in concentration from 0 to 100 uM. For each assay negative controls containing XIAP and Smac-Flu (equivalent to 0% inhibition) and positive controls containing only free Smac-Flu peptide (equivalent to 100% inhibition) were included on each assay plate. The polarization values were measured after 3 hour incubation when the binding reached equilibrium. IC50 values were determined from the plot using nonlinear least-squares analysis. Curve fitting was performed using […] PRISM software. The Kis of competing compounds were derived from the measured IC50 and the Kd of Smac-Flu in the competition assays, using the Cheng-Prusoff equation. The fluorescence intensity of each tested inhibitor is closely monitored to exclude any false positives. Furthermore, compounds with high fluorescence intensity are tested using the NMR methods described below.

In test [2] the target is T2, human XIAP BIR3 protein (residues 241-356) (Homo sapiens, UniProt P98170).
T2 construct: The human XIAP BIR3 protein (residues 241-356) with a His tag; His tag
The test can be described thus: FP direct binding of fluorescent labeled Smac peptides to XIAP BIR3 (Kd titration).

The next test concerns Jurkat-Vec cells. Kind of test: Cell growth assay, Jurkat-Vec. In kind it is cell-based. As to conditions: 2.5 μM, 72 hours. How it is done: (§1) FIG. 9 presents inhibition of cell growth by embelin in Jurkat-Vec and Jurkat-XIAP cells. The cell growth results are expressed as the percent of control and calculated from the percent of absorbance of treated wells versus that of vehicle control.
(§2) Human prostate cancer cell lines (PC-3, LNCap, CL-1, DU-145), and normal human fibroblast cell line WI-38 were obtained from the American Type Culture Collection (ATCC), were grown and maintained in Dulbecco's modified Eagle's medium (DMEM) containing 10% FBS (Invitrogen Corporation). Normal human prostate epithelial cells (PrEC) were obtained from Clonetics (Cambrex Inc., MD) and maintained in the special medium provided by the company. Jurkat T-cells stably transfected with either empty vector (Jurkat-Vec), or XIAP (Jurkat-XIAP) and were cultured in RPMI 1640 containing 10% fetal calf serum and 1 ug/ml puromycin. Cell cultures were maintained in a humidified incubator at 37° C. and 5% CO2.
Cell growth was determined by the MTT-based assay using Cell Proliferation Reagent WST-1 (Roche) according to the manufacturer's instruction. […] Absorbance was measured with a plate reader at […] with correction at […]. The results are expressed as the percent of absorbance of treated wells versus that of vehicle control.

Another test concerns Jurkat-XIAP cells. The test can be described thus: Cell growth assay, Jurkat-XIAP. Format: cell-based. As for the experimental part: as §1, §2
Cell growth was determined by the MTT-based assay using Cell Proliferation Reagent WST-1 (Roche) according to the manufacturer's instruction. The WST-1 assay is a colorimetric assay that measures the reduction of WST-1 by mitochondrial succinate dehydrogenase, which belongs to the respiratory chain of the mitochondria and is active only in viable cells. The WST-1 enters the cells and passes into the mitochondria, where it is reduced to a soluble, colored formazan product. The amount of formazan dye formed directly correlates to the number of metabolically active cells in the culture. Cells (5000 cells/well) were grown in medium with 10% FBS, and various concentrations of drugs were added to the cells in triplicate. […] Absorbance was measured with a plate reader at […] with correction at […]. The results are expressed as the percent of absorbance of treated wells versus that of vehicle control.

For test [3], the target named is XIAP BIR3 protein of human XIAP (residues 241-356) (Homo sapiens, UniProt P98170). Kind of test: biochemical.
The next test deals with caspase-9 in PC-3 cells. The test can be described thus: Activation of caspase-9 assay, PC-3. Format: cell-based, human. The conditions noted are these: for blocking of active caspase-9 staining in Annexin V-FITC positive cells by pre-incubation: embelin-treated PC-3 cells pre-incubated with excessive inhibitor (20 μM LEHD-FMK, 5 min) before staining. As for the experimental part:
FIGS. 7A and 7B show the activation of caspase-9 by embelin in PC-3 prostate cancer cells and its selectivity in normal prostate epithelial cells. 1×10^6 PC-3 or PrEC cells per well in 6-well culture plates were treated with embelin for 48 hours. […] The cells were collected and stained of active caspase-9 by CaspGLOW Red Active Caspase-9 Staining Kit, and analyzed by flow cytometry in PI channel.
1×10^6 PC-3 cells per well in 6-well culture plates, were treated with various concentrations of embelin, or the same amount of solvent DMSO as vehicle control, for up to 48 hr. […] The cells were collected for staining of active caspase-9 by CaspGLOW Red Active Caspase-9 Staining Kit (BioVision, Inc., Mountain View, Calif.) according to the manufacturer's instructions, with modification. Briefly, to each tube containing 1×10^6 treated or control cells in 0.3 ml complete culture medium was added 1 μl of Red-LEHD-FMK and incubated for 0.5 hr at 37° C. incubator with 5% CO2. For double staining with Annexin V-FITC, the cells were spun down and resuspended in 100 μl Binding Buffer containing 1× Annexin V-FITC from the Annexin-V-FLUOS Kit (Roche) and incubated at room temperature for 10 min. The cells were then washed two times with Wash Buffer from the Active Caspase-9 Staining Kit. The cells were resuspended in 0.3 ml Binding Buffer and analyzed by flow cytometry, using PI channel for active caspase-9 and FITC channel for apoptosis.
The active caspase-9 and Annexin V double stained cells were also observed under Zeiss Laser Scanning Confocal Microscope LSM 510 Meta, using the fluorescent filter sets for rhodamine (Red) and FITC (green) channels. Early apoptotic cells show green fluorescence on the cell membrane while caspase-9 positive cells show bright red staining in the cytoplasm. Photos were taken at original magnification of 630×.

Ends that are not written are not given here. Peptide text beside a SMILES is read from it. * marks the point of attachment. 6FAM = O=C1OC2(c3ccc(O)cc3Oc3cc(O)ccc32)c2cc(C(=O)*)ccc21; Cbz = O=C(OCc1ccccc1)*; CH2F = FC*

T1 sequence (P98170 241-356): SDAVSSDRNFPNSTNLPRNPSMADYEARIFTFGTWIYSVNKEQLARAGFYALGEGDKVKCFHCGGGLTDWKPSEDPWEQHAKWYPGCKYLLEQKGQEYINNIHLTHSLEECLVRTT
T2 sequence (P98170 241-356): as above
XIAP BIR3 protein of human XIAP (residues 241-356), sequence (P98170 241-356): as above

Turning to `Cc1ccc(CCc2cccc(CCC3=C(O)C(=O)C=C(O)C3=O)c2)cc1` [CJ-274], the IC50 (as a rule, the midpoint of a concentration-inhibition curve) in test [1] stood at 2.14 ± 0.73 µM.
In test [1], `CC(C)c1ccc(CCc2cccc(CCC3=C(O)C(=O)C=C(O)C3=O)c2)cc1` [CJ-294] gave an IC50 of 3.76 ± 0.25 µM.
Same read-out and setting: the result for `CC(C)c1ccc(CCc2cccc(CCC3=C(O)C(=O)C=C(O)C3=O)c2)cc1` [CJ-301] reads 3.42 ± 0.31 µM; that for `Cc1ccc(NC(=O)c2cccc(CCC3=C(O)C(=O)C=C(O)C3=O)c2)cc1` [CJ-305], 1.62 ± 0.28 µM.
In test [1], `Cc1ccc(CNC(=O)c2cccc(CCC3=C(O)C(=O)C=C(O)C3=O)c2)cc1` [CJ-315] registered an IC50 of 5.27 ± 1.43 µM.
Compound `Cc1cccc(NC(=O)c2cccc(CCC3=C(O)C(=O)C=C(O)C3=O)c2)c1` [CJ-322] returned a 50% inhibitory concentration (IC50) in test [1] of 4.89 ± 0.75 µM.
Compound `Cc1ccccc1NC(=O)c1cccc(CCC2=C(O)C(=O)C=C(O)C2=O)c1` [CJ-323] gave an IC50 in test [1] of 11.6 ± 0.96 µM.
Still for that read-out and setting: for `O=C1C=C(O)C(=O)C(CCc2cccc(C(=O)Nc3ccc(Cl)c(Cl)c3)c2)=C1O` [CJ-327] the value was 12.3 ± 1.09 µM; for `O=C1C=C(O)C(=O)C(CCc2ccccc2)=C1O` [CJ-331], 89.1 ± 11.3 µM.
Still for that read-out and setting: for `CC(C)CCCCCC1=CC(=O)C=C(O)C1=O` [EW-2] the value was 61.4 ± 9.29 µM; for `O=C1C=C(O)C(=O)C(CCCCc2ccccc2)=C1` [EW-3], 353 ± 79.4 µM; for `CCCCc1cccc(CCC2=C(O)C(=O)C=C(O)C2=O)c1` [EW-4], 27.6 ± 2.76 µM.
Same read-out and setting: the result for `O=C1C(O)=C(CCc2cccc(CCc3ccccc3)c2)C(=O)C(O)=C1CCc1ccccc1` [EW-6] reads 14.3 ± 2.41 µM; that for `O=C1C=C(O)C(=O)C(CCc2cccc(CCc3cccc(Cl)c3)c2)=C1O` [EW-7], 9.18 ± 1.9 µM.
Regarding `O=C1C=C(O)C(=O)C(CCc2cccc(CCc3ccc(Cl)cc3)c2)=C1O` [EW-8], the IC50 in test [1] worked out at 8.05 ± 1.48 µM.
Same read-out and setting: the result for `CCC1=C(O)C(=O)C=C(O)C1=O` [EW-9] reads 475 ± 122 µM.
As to `C[C@H](N)C(=O)N[C@@H](CCCNC(=N)N)C(=O)N1CCC[C@H]1C(=O)N[C@@H](Cc1ccccc1)C(=O)N[C@@H](C)C(=O)N[C@@H](CCC(N)=O)C(=O)N[C@@H](CCCCNC(=O)c1ccc2c(c1)C1(OC2=O)c2ccc(O)cc2Oc2cc(O)ccc21)C(=O)O` [SM7F, ARPFAQK-FAM] (H-ARPFAQK(6FAM)-OH; N-terminus and C-terminus assumed), in test [2], the “binding affinity compared with S9F” value is recorded as “higher binding affinity than S9F”; the “ratio of the Kd values between labeled SM7F and S9F” value is 7.3 times.
As for `COc1cc([C@@H]2c3cc4c(cc3[C@@H](O[C@@H]3O[C@@H]5CO[C@@H](C)O[C@H]5[C@H](O)[C@H]3O)[C@H]3COC(=O)[C@H]23)OCO4)cc(OC)c1O` [etoposide], the “cells killed in cell growth assay” value in the test with Jurkat-Vec cells is 94.3%±0.6%; in the test on Jurkat-XIAP cells (2.5 μM, 72 hours) it was 59%±2%; with Jurkat-XIAP cells (10 μM), 85%±0.1%.
ARPFAQK [SM7] returned a 50% inhibitory concentration (IC50) in test [3] of 0.57 ± 0.11 µM.
For “Cbz-Val-Ala-Asp-CH2F [ZVAD peptide, reference compound]”, in the test with caspase-9 in PC-3 cells (PC-3 cells, 40 μM embelin, 48 hrs), the “blocking of Annexin V-FITC and active caspase-9 double staining” value is “blocked”. In the test on caspase-9 in PC-3 cells (pan-caspase inhibitor added 5 min before embelin), the “inhibition of embelin-induced activation of caspase-9” value is recorded as “effectively inhibited”.
Turning to LEHD-FMK [reference compound], in the test with caspase-9 in PC-3 cells, the “blocking of active caspase-9 staining in Annexin V-FITC positive cells by pre-incubation” value is “blocked”.
The same measure, in the same setting: the result for ZDEVD-FMK [reference compound] reads “did not”.

(Values after patent publication US7910621B2, “Small molecule antagonists of XIAP family proteins” (The Regents of the University of Michigan, priority 2004, dated 2011).)
